Assay results from patent publication US7582681B2, “Synergistic mixtures of 1,2-alkane diols” (Symrise GmbH & Co. KG, priority 2002, dated 2009).
≈ marks a conversion by molar mass, not a printed value.

Tests used:
Assay in all cases: MIC, agar dilution method
Assay type in all cases: cell-based
[1] = tested on: Malassezia furfur DSM 6171; details: DSM6171, Mueller-Hinton agar + 3% Tween 80, 72 h at 30° C.
Experimental: (§1) Petri dishes 9.0 cm in diameter were charged with 13.5 ml freshly prepared Mueller-Hinton agar (Merck, Ref. 1.05437 or Wilkins-Chalgren agar boullion, Oxoid, Ref. CM 643, supplemented with log agar-agar/liter) kept liquid at 50° C., to which the various concentrations of the diluted samples were added in 10% (V/V)=1.5 ml. Mueller-Hinton agar that contained 3% Tween80 (Merck, Ref. 8.22 187) was used for the test germ Malassezia furfur. In each case 5 ml of the samples were diluted in distilled water and made up to 10 ml. The further test concentrations of the particular dilution series, which were prepared in the form of geometric series, were prepared by progressive 1:2 dilution of this batch with distilled water. […] Two agar plates were poured per test concentration and nutrient medium. After solidification and drying (approx. 1 h at 37° C.), the test plates were inoculated in point form with, in each case, 1 μl of the test germ suspensions listed below. To check purity and identity the bacteria that grow aerobically (Brevibacterium epidermidis, Corynebacterium xerosis, Staphylococcus epidermidis) were [lacuna] on Columbia blood agar (BioMérieux, Ref. 43049). The mould Aspergillus niger, the yeast Candida albicans and the two skin fungi Trichophyton mentagrophytes and Epidermophyton floccosum were cultured on Sabouraud agar (BioMérieux, Ref. 43555). Malassezia furfur was cultured on Sabourad HLT agar with disinhibitors (addition of 3% Tween80: 1%; lecithin: 0.3%; histidine: 0.1%; Merck, Ref. 1.18368). Propionibacterium acnes was cultured on Schaedler agar (BioMérieux, Ref. 43273). Further details on the test germs can be taken from Table 5. For preparation of the other test germ suspensions, the test strains were cultured on the abovementioned solid nutrient medium, harvested using sterile swabs and taken up or diluted in such an amount of Mueller-Hinton broth that the turbidity of the suspensions corresponded to McFarland standard 0.5. All test germ suspensions with the exception of Propionibacterium acnes were diluted again 1:10 with sterile broth and the germ count thereof was determined by the surface method using a Spiralometer (results: see Table 5). The MIC (minimum inhibitory concentration) was regarded as the lowest concentration of active compound at which macroscopically there is no growth. Minimal, barely visible growth or few small individual colonies were evaluated as inhibition.

[2] = tested on: Trichophyton mentagrophytes CBS 26379; details: CBS26379, Mueller-Hinton agar, 72 h at 30° C.
Experimental: as §1

[3] = tested on: Brevibacterium epidermidis ATCC 35514; details: ATCC35514, Mueller-Hinton agar, 18 h at 36° C.
Experimental: (§2) Petri dishes 9.0 cm in diameter were charged with 13.5 ml freshly prepared Mueller-Hinton agar (Merck, Ref. 1.05437 or Wilkins-Chalgren agar boullion, Oxoid, Ref. CM 643, supplemented with log agar-agar/liter) kept liquid at 50° C., to which the various concentrations of the diluted samples were added in 10% (V/V)=1.5 ml. Mueller-Hinton agar that contained 3% Tween80 (Merck, Ref. 8.22 187) was used for the test germ Malassezia furfur. In each case 5 ml of the samples were diluted in distilled water and made up to 10 ml. The further test concentrations of the particular dilution series, which were prepared in the form of geometric series, were prepared by progressive 1:2 dilution of this batch with distilled water. […] Two agar plates were poured per test concentration and nutrient medium. After solidification and drying (approx. 1 h at 37° C.), the test plates were inoculated in point form with, in each case, 1 μl of the test germ suspensions listed below. To check purity and identity the bacteria that grow aerobically (Brevibacterium epidermidis, Corynebacterium xerosis, Staphylococcus epidermidis) were [lacuna] on Columbia blood agar (BioMérieux, Ref. 43049). The mould Aspergillus niger, the yeast Candida albicans and the two skin fungi Trichophyton mentagrophytes and Epidermophyton floccosum were cultured on Sabouraud agar (BioMérieux, Ref. 43555). Malassezia furfur was cultured on Sabourad HLT agar with disinhibitors (addition of 3% Tween80: 1%; lecithin: 0.3%; histidine: 0.1%; Merck, Ref. 1.18368). Propionibacterium acnes was cultured on Schaedler agar (BioMérieux, Ref. 43273). Further details on the test germs can be taken from Table 5. The preparation of the test germ suspensions of the bacterial germs that grow aerobically was carried out by incubation of Mueller-Hinton broth (Merck, Ref. 1.10293) which had been inoculated with a few individual colonies of the relevant test germs, at 36° C. After a distinct turbidity had been obtained, sterile nutrient broth was added to the suspensions in such an amount that the turbidity thereof corresponded to McFarland standard 0.5 (approx. 1.5×10^8 CFU/ml). All test germ suspensions with the exception of Propionibacterium acnes were diluted again 1:10 with sterile broth and the germ count thereof was determined by the surface method using a Spiralometer (results: see Table 5). The MIC (minimum inhibitory concentration) was regarded as the lowest concentration of active compound at which macroscopically there is no growth. Minimal, barely visible growth or few small individual colonies were evaluated as inhibition.

[4] = tested on: Corynebacterium xerosis ATCC 7711; details: ATCC7711, Mueller-Hinton agar, 18 h at 36° C.
Experimental: as §2

[5] = tested on: Staphylococcus epidermidis ATCC 12228; details: ATCC12228, Mueller-Hinton agar, 18 h at 36° C.
Experimental: as §2

| MIC [1] | MIC [2] | MIC [3] | MIC [4] | MIC [5] | SMILES |
| --- | --- | --- | --- | --- | --- |
| 12.5 mg/mL | 6300 µg/mL (≈ 53.3 mM) | 25 mg/mL (≈ 212 mM) | 12500 µg/mL (≈ 106 mM) | 25 mg/mL (≈ 212 mM) | CCCCC(O)CO (stereo not shown) [HE3, 1,2-hexanediol] |
| 50 mg/mL | 1560 µg/mL (≈ 10.7 mM) | 3.12 mg/mL (≈ 21.4 mM) | 6250 µg/mL (≈ 42.7 mM) | 12.5 mg/mL (≈ 85.5 mM) | CCCCCCC(O)CO (stereo not shown) [OC3, 1,2-octanediol] |
